Test results as given in US6600076B1, “Cleavable, water-soluble surfactants” (The Regents of the University of California, priority 1999, dated 2003).
Read-outs that look alike come from different tables or passages of the source.

Experiments:
[1] = Interfacial tension between dodecane and aqueous solution on oxidation by NaOCl; format: physicochemical
[2] = DTT (10 equivalents) added
Description: This mixture was sonicated on a setting of 50 for a period of 10 s and then vortexed for 1 min to ensure that the emulsion was thoroughly mixed.

[3] = Surface tension after oxidation with NaOCl or bleach (pendant drop); format: physicochemical; conditions: for surface tension: 4 mM
Description: To test the idea that oxidation of 1 by NaOCl would transform 1 into less surface-active products, changes in surface tensions that accompanied additions of aliquots of NaOCl to solutions of 1 were measured. The amount of OCl^− consumed by reaction with 1 was also determined by iodometry. The initial surface tension of the 2 mM solution (using the pendant drop technique) was measured to be 48 mN/m. […] The addition of subsequent aliquots of NaOCl, however, caused the surface tension to increase to ˜71 mN/m. […] In this case, only ˜8% of the OCl^− added remained unreacted.
The oxidation of 1 using NaOCl (6:1 ratio of NaOCl to 1) was performed in 50 mM phosphate buffers at three different pHs (pH 3, 6.9, and 11). Following the addition of NaOCl to aqueous solutions of 1 at pH 3 and pH 6.9, the surface tensions of the solutions were measured to increase from ˜48 mN/m to ˜71 mN/m within ˜5 min (FIG. 17). The surface tension was also determined to increase from ˜48 mN/m to ˜71 mN/m upon addition of NaOCl to an aqueous solution of 1 at pH 11. In this case, however, it took ˜15 min for the surface tension to increase to 71 mN/m. […] Therefore disulfide-based surfactants can form the basis of chemodegradable surfactant system that can be used over a wide pH range.
Household bleach was added (6:1 ratio of NaOCl to 1) to a 2 mM solution of 1 in pH 6.9 buffer. Upon addition of bleach to 1, the surface tension of the solution increased from 48 mN/m to ˜71 mN/m in ˜3 min (FIG. 18A), a result similar to our earlier observations based on the addition of NaOCl to 1. […] A control experiment was performed in which the household bleach was added to the phosphate buffer and found not to change the surface tension.

[4] = 10 mM of 1, 5 wt. % dodecane, NaOCl 6:1
Description: The mixture was sonicated on a setting of 2 for a period of 20 s and then vortexed for 1 min to ensure that the emulsion was thoroughly mixed.
The disruption of the emulsion was determined by the observation of phase separation in the reaction vial.
A single emulsion was first divided into two vials. […] The second vial was used as a control.

[5] = cited from earlier work
[6] = Surface tension of aqueous solutions, maximum bubble pressure tensiometer, incl. reduction with DTT; format: physicochemical; conditions: for effect on surface tension of water: 10 mM DTT and 1 mM oxidized DTT added to water
Source text: (Menger, F. M. et al., J. Am. Chem. Soc. 115:10083-10090 (1993)). […] The surface tensions of the reacting system reported herein correspond, therefore, to a local steady state at the surface of the solution. In the absence of reaction, these surface tensions are equilibrium tensions.

[7] = Stability of solid and of aqueous solutions (surface tension over time); format: physicochemical; conditions: 1 mM solution in 50 mM phosphate buffer (pH 6.9)
[8] = Surface tension, pendant drop; conditions: 50 mM phosphate buffer pH 6.9, concentrations around or above 10 mM
[9] = Equilibrium surface tension, Wilhelmy plate, borate buffer; format: physicochemical; conditions: 100 mM borate buffer, pH 9.2
Description: Disulfide-containing surfactants with anionic head groups were synthesized. […] Equilibrium surface tensions were measured using a Kruss K10T tensiometer with a platinum Wilhelmy plate. Surfactant solutions were prepared in a 100 mM borate buffer, pH 9.2.

Cyclic voltammetry = format: physicochemical; conditions: 5 mM of 1 or 10 mM of 2, 50 mM phosphate buffer pH 6.9, SCE reference
Description: Solutions were prepared in 50 mM phosphate buffer, pH 6.9. Application of potential was controlled using a potentiostat (Pine Instruments, Grove City, Pa.), and the experimental set-up involved using a carbon felt working electrode with cobalt phthalocyanine (catalyst) evaporated onto the surface of the electrode. A platinum counter electrode and SCE reference electrode were also used.

In the case of “bis(8-trimethylammonium bromide)dioctyl disulfide [compound 1]”, the “time for the interfacial tension to increase” value ([1]; 10 mM, 6 equivalents of NaOCl) is reported as no more than 3 min, the “completion of phase separation of the emulsion” value [2] is reported as roughly 120 min and the “duration of the rapid oxidation” value [3] is reported as 2 to 3 min. The “time for the surface tension to increase” value ([3]; NaOCl 6:1, pH 3 and pH 6.9) was no more than 5 min, the “time for the surface tension to increase” value ([3]; NaOCl 6:1, pH 11) was roughly 15 min and the “time for the surface tension to increase” value ([3]; household bleach, 6:1, pH 6.9) was roughly 3 min. For the same molecule, the “completion of phase separation of the emulsion” value [4] was 45 min and the “evidence of phase separation of the emulsion” value [4] was no more than 10 min.
In the case of CCCCCCCCCCCCOS(=O)(=O)[O-].[Na+] [SDS, sodium dodecyl sulfate], the “surface pressure at an air-aqueous interface” value ([5]; 1 mM solution) is given as 7.5 mN/m and the “surface pressure at the heptadecane-aqueous interface” value ([5]; 1 mM solution) is given as 15.2 mN/m.
In the case of C[N+](C)(C)CCCCCCCCCCCC[N+](C)(C)C.[Br-].[Br-] [dodecane-1,12-bis(trimethylammoniumdibromide)], the limiting surface tension ([5]; dissolved into water) is listed as 38 mN/m.
In the case of O[C@H](CS)[C@H](O)CS (racemic) [DTT, dithiothreitol, reference compound], the “effect on surface tension of water” value [6] is reported as “did not result in a change in surface tension”.
In the case of OC1CSSCC1O (centres unmarked) [oxidized DTT, reference compound], the “effect on surface tension of water” value [6] is reported as “did not result in a change in surface tension”.
In the case of CCCCCCCCCCCC[N+](C)(C)C.[Br-] [DTAB, dodecyltrimethylammonium bromide, reference compound], the “surface tension of the initial solution” value ([3]; 4 mM solution, before NaOCl) is reported as roughly 52 mN/m, the surface tension ([3]; first equivalent of NaOCl) is reported as roughly 43 mN/m and the surface tension ([3]; second equivalent of NaOCl) is reported as roughly 50 mN/m. The surface tension ([3]; up to six equivalents of NaOCl) was 45 mN/m.
For CCCCCCCCCCCCCCCC[N+](C)(C)C.[Br-] [CTAB, cetyltrimethylammonium bromide], the “limiting surface tension (γlim)” value ([5]; in 0.1 M lithium sulfate) is listed as 39 mN/m, the “increase in surface tension over 24 h” value [7] is listed as roughly 0.5 mN/m and the “increase in surface tension over 5 days” value [7] is listed as 1 mN/m. It also gave a surface tension [7] of roughly 41 mN/m.
For O=C(O)CCCCCCCS [compound 4, 8-mercaptooctanoic acid], the limiting surface tension [8] was roughly 47 mN/m, the “surface pressure π at the interface of dodecane and water” value ([1]; 10 mM of 1 oxidized) was 22.5 mN/m and the “surface pressure π at the surface of water” value ([1]; concentration of 10 mN (printed)) was 2 mN/m. For the same molecule, the “surface activity of the oxidation product” value ([3]; up to a concentration of 10 mM, 6:1 NaOCl to 1) was “surface-inactive”.
With “1,16-dicarboxylic dioctyl disulfide [compound 3]” the “differences in equilibrium surface tensions between 3 and 4 at a specified concentration” value [9] was “up to 16 mN/m”.
For C[N+](C)(C)CCCCCCCCS.[Br-] [compound 2, (8-mercaptooctyl)trimethylammonium bromide], the “average area occupied at the surface” value ([6]; 2 mM solution of 2, Gibbs adsorption equation) was greater than 500 A^2/molecule, the “threshold concentration of surfactant causing a measurable reduction in surface tension” value ([6]; 50 mM phosphate buffer, pH 6.9, 25° C.) was roughly 1 mM and the oxidation peak (Cyclic voltammetry) was 0.55 V.
